The structures appear in SMILES notation. Where only a bound is given, the exact number is not on record here.

The source of these data is a melting point compilation (Tetko et al.; mined from patent text by program, amines drawn as free bases though some values may be those of a salt).

By melting point is commonly meant the temperature, or range, at which the solid turns liquid. `CC(=O)Nc1ccccc1CS(=O)c1nccn1-c1ccncc1` (stereo unspecified): the melting point was in the range of 147 to 149 °C. The figure for `CCCCCCCCCCCCCCCCCNC(=O)OCCOCCOC(=O)N(Cc1ccccn1)C(C)=O` is 60 to 61 °C; for `CS(=O)(=O)c1cccc(Br)c1` it is 63 to 64 °C; for `COc1ccc2cc([C@H](C)C(=O)NN)ccc2c1` it is 106 to 108 °C. To `COC(=O)c1cc(OC)c(O)cc1[N+](=O)[O-]` belongs 101 to 102 °C; to `N#CC(C#N)=C(N)NCCCc1ccccc1`, 165 to 167 °C. Compound `Cc1ccccc1C1SCCCN1C(=S)Nc1cccc(Cl)c1` (stereo unspecified) gave a melting point of 134 to 136 °C. Compound `Cc1ccc(-c2nnc3c(n2)CCCC3)nc1-c1ccc(F)cc1` yielded a melting point of 105 °C. To `CC1=CC(=O)C(C)=C(C)C1=O` belongs 28 °C. For `FC(F)(F)Oc1ccc(-c2ncc(CBr)cn2)cc1`, the melting point is 80 to 81 °C. Regarding `O=C1Nc2ccc([N+](=O)[O-])cc2Cn2nnnc21`, the melting point was 276 to 279 °C. `COC(=O)C(=Cc1cccc(O)c1)NC(C)=O`: the melting point is 115 °C. For the compound `COc1ccc(C#N)c(ON=C(C)C)c1`, the melting point lay in the range of 78 to 79 °C. As to `CCOC(=O)C(OCC)C(=O)Nc1ccc(Br)cc1` (stereo unspecified), the melting point was 62 to 64 °C. For `CC(C)(C)C(=O)OCOC(=O)[C@H]1C[C@H](NC(=O)Cc2ccccc2)c2c(Cl)cc(Cl)cc2N1` (relative stereo), the melting point was in the range of 162 to 163 °C. Regarding `COCC1(O)CCN(c2c(F)cc(N3C[C@H](CO)OC3=O)cc2F)CC1`, the melting point was 117 to 119 °C.

Regarding `O=C(O)C(Cl)=C(Cl)C(O)=NCCc1ccc([N+](=O)[O-])cc1`, the melting point was determined as 166 °C. On to `CC(=O)NC(COC1CCN(c2nc3ccc(OCC4CC4)cc3o2)CC1)C(F)(F)F` (stereo unspecified), for which the melting point was 126 to 127 °C. With `O=C(O)COc1c(Br)cc(-c2cccc3sc4ccccc4c23)cc1Br`, the melting point is 212 to 213 °C. In turn, `COc1ccc(/C=C/C(=O)Nc2ccccc2C(=O)O)cc1OC1CCCC1` returned a melting point of 211 to 217 °C. `CCCCN(CCCC)CCCOc1ccc(C(=O)c2c(-c3ccccc3)cc3cc(C(=O)OCC)ccn23)cc1` had a melting point of 148 to 151 °C. On to `COc1ccc2cc(CN3CCC(NC(=O)NC(=O)c4ccccc4)CC3)ccc2c1`, for which the melting point is 243 to 244 °C. Compound `Fc1ccc2c(c1)nc(/C=C/c1ccccc1)n2-c1ccccn1` showed a melting point of 134 to 135 °C.

The compound `CN(C(=O)On1nc(Br)c(Br)c1Br)c1ccccc1` had a melting point of 115 to 119 °C. `C[C@@]1(F)[C@H](OC(=O)c2ccccc2)[C@@H](COC(=O)c2ccccc2)O[C@@H]1Br` displayed a melting point of 59 to 61 °C. `CCCCCCc1nc2c(N)nc3ccccc3c2n1CCCCNS(C)(=O)=O` had a melting point of 170 to 171 °C. With `N#Cc1ccc2nc(C(=O)NCc3cccc(NC(=O)CCc4nc[nH]n4)c3)[nH]c(=O)c2c1`, the melting point lay in the range of 298 to 301 °C. For `N#Cc1c2cccccc-2n(CC(=O)O)c1=O`, the melting point fell in the range of 294 to 295 °C. With `N#Cc1c(N)nc2ccc(N3CCOCC3)cc2c1NCc1ccccc1`, the melting point came to 202 °C. The compound `CCOC(=O)c1nc(C)n(Cc2ccc([N+](=O)[O-])cc2)c1C(=O)OCC` returned a melting point of 109 °C. To `C#CCCCOc1c(C)cc(C(N)=O)cc1C` belongs 81 to 84 °C; to `O=C(Nc1ccc(-c2ncon2)cc1)OCC(Cl)(Cl)Cl`, 108 to 110 °C. The figure for `CCC(=O)C1=C(O)CC(c2ccc3sccc3c2)CC1=O` (stereo unspecified) is 134 °C. The compound `COc1ccc(S(N)(=O)=O)cc1C(=O)C(C)Br` (stereo unspecified) displayed a melting point of 108 to 110 °C.

As for `Cc1cc(C)cc(COC(=O)C(Cc2c[nH]c3ccccc23)NC(=O)OC(C)(C)C)c1` (stereo unspecified), the melting point was in the range of 152 to 153 °C. Regarding `O=C1Nc2cccc(I)c2/C1=C/c1ccc[nH]1`, the melting point was 256 to 258 °C. As to `O=C(N[C@@H](CO)c1ccccc1)c1cccc(I)c1`, the melting point lay in the range of 154 to 156 °C.

`CC(CN1C(=O)C2(COc3cc4c(cc32)CCO4)c2ccccc21)OCOCc1ccccc1` (stereo unspecified) yielded a melting point of 49 to 52 °C. To `COc1ccc(C2=NN(c3cccc(C(=O)N4CCOCC4)c3)C(=O)C(C)(C)C2)cc1OC` belongs 108 to 109 °C; to `CC1CCOC(CBr)(c2ccc(Oc3ccccc3)cc2)O1` (stereo unspecified), 96 to 106 °C. As for `Cc1cc(I)cc(C(=O)O)c1N`, the melting point was determined as 214 °C. With `CCNC(=S)NCc1cccc2c1C(=O)N(C1CCC(=O)NC1=O)C2=O` (stereo unspecified), the melting point is 154 to 156 °C.

The compound `CCOC(=O)C(C#N)=C1CCN(c2ccc(N3C[C@H](CNC(C)=S)OC3=O)cc2F)CC1` registered a melting point of 182 to 185 °C.

In turn, `CCCCCCCCCC(=O)Cc1ccc(OCc2ccccc2)c(OCc2ccccc2)c1` displayed a melting point of 68 °C. In turn, `O=S(=O)(Nc1cccc(CCOCc2ccc(-c3ccc(F)cc3)cc2F)c1)C(F)(F)F` registered a melting point of 65 to 67 °C. As for `CSc1ccc(C(CC(F)(F)F)=NO)cc1`, the melting point was in the range of 106 to 107 °C. In turn, `Cc1cc(=O)c(OCC(=O)O)cn1C` displayed a melting point of 240 to 242 °C. Turning to `Cc1cc(C)c2ccc(N3C(=O)c4nccnc4C3=O)nc2n1`, the melting point was 250 °C.

`CCOC(=O)c1sc(SC(C)C)c2c1CCC(Br)C2=O` (stereo unspecified): the melting point lay within 107 to 108 °C. As to `CC(C)(C)CC1N(C(c2ccccc2)C(O)c2ccccc2)C(C(=O)NC2CCC(O)CC2)C(c2cccc(Cl)c2F)C12C(=O)Nc1cc(Cl)ccc12` (stereo unspecified), the melting point stood at 190 °C. For `O=S(=O)(c1ccc(O)cc1)N(CC(F)(F)F)c1ccc(O)cc1`, the melting point lay in the range of 172 to 173 °C. Consider `COC(=O)CCCC(C)(C)c1ccc(C(=O)c2ccccc2C(=O)O)cc1`, for which the melting point lay in the range of 138 to 140 °C. The compound `Nc1nc2[nH]c3ccccc3c2c(=O)[nH]1` showed a melting point above 340 °C.

As for `CC(C)(C)Cc1nc2cc(CC(=O)O)ccc2o1`, the melting point was in the range of 108 to 109 °C.

Take `CCOC(=O)c1ccc(OCc2ccc3ccccc3c2)c(OC)c1`: the melting point is 86 to 87 °C. In turn, `COC(=O)c1cc(C)nc(C)c1` displayed a melting point of 45 to 47 °C.

`CCOC(=O)c1cn2c(n1)SCC2` had a melting point of 107 to 109 °C.

In turn, `O=C1c2ccc(F)cc2C(=O)N1c1cc([N+](=O)[O-])c(Cl)cc1F` registered a melting point of 162 to 163 °C. To `COC(=N)N1CCC(c2n[nH]c3cc(Cl)ccc23)CC1` belongs 173 to 175 °C. `O=C(C(=O)N1CCN(c2cccc3[nH]ccc23)CC1)c1c[nH]c2cc(Cl)ccc12` yielded a melting point of 229 to 231 °C. To `CC1NC2=NCCN2C1c1ccccc1` (stereo unspecified) belongs 179 °C. `CC(Oc1ccc(-c2cc(C(F)(F)F)cc(S(N)(=O)=O)c2)cc1)C(O)CCc1cccnc1` (stereo unspecified) yielded a melting point of 57 to 59 °C.

Compound `CCC(=O)NC[C@H]1CN(c2ccc(C3CCS(=O)(=O)CC3)c(F)c2)C(=O)O1` registered a melting point of 200 to 201 °C. Consider `COC(=O)C(C)(C)CCCOc1cc(C)c(NS(=O)(=O)c2ccc(OC)cc2)cc1C`, for which the melting point lay in the range of 90 to 92 °C. `Cc1cc2c([C@@H]3C[C@H]3CNC(=O)C(F)(F)F)cccn2n1` (relative stereo) yielded a melting point of 136 to 138 °C. For the compound `CN(CCOc1ccc(CC(OCC(F)(F)F)C(=O)O)cc1)c1nc2ccccc2o1` (stereo unspecified), the melting point lay in the range of 116 to 117 °C. `CCOC(=O)c1cn(CCO)c2nc(N3CCN(C)CC3)ncc2c1=O` registered a melting point of 197 to 199 °C. `CC(C)(C=O)C(=O)Nc1ccc(Cl)cc1` yielded a melting point of 99 to 100 °C. Consider `Nc1ccc(S(=O)(=O)CI)cc1`, for which the melting point was 170 to 172 °C.

`CC(C)Cn1cnc2c(N)nc3ccc(CCO)cc3c21` yielded a melting point of 214 to 216 °C. `CS(=O)(=O)OCc1cc(-c2ccc3occc3c2)nn(Cc2ccc(F)cc2)c1=O` showed a melting point of 162 to 165 °C. `CCCCn1c(Cc2cc(OC)ccc2Cl)nc2c(N)ncnc21`: the melting point is 138 to 139 °C. The compound `CN1CCCCNC1=C[N+](=O)[O-]` returned a melting point of 88 to 89 °C. The compound `O=C(O)c1cnc(-c2ccccc2OCC2CC2)[nH]c1=O` returned a melting point of 219 to 220 °C. In turn, `CC(Cl)(Cl)C(NC(=O)c1cccc(Cl)c1)NC(=NC#N)Nc1cccnc1` (stereo unspecified) registered a melting point of 142 to 143 °C. `CC(C)(c1ccc(Oc2cccc([N+](=O)[O-])c2)cc1)c1ccc(Oc2cccc([N+](=O)[O-])c2)cc1` registered a melting point of 111 to 113 °C. As to `CC(C(=O)N(C)C)n1cc(Cl)c(-c2ccccc2)n1` (stereo unspecified), the melting point is 73.5 to 75 °C. In turn, `CCCCCS(=O)(=O)NC(=O)/C(C)=C/c1ccc(OCCOC)cc1Oc1ncc(Cl)cc1Cl` registered a melting point of 97 to 98 °C. To `Cc1nc2c3c(c(C(=O)NCCO)cc2n1C)CCC1(Cc2ccccc2C1)N3` belongs 167 to 168 °C.

On to `Cc1cc(Cn2nc(C(F)(F)C(F)(F)F)nc2C(F)(F)F)ccc1N`, for which the melting point fell in the range of 60 to 63 °C. `CS(=O)C1C=Nc2cc(Cl)ccc2C1=O` (stereo unspecified) displayed a melting point of 247 to 249 °C. To `COc1cc2nc(N3CCN(c4nc5ccccc5s4)CC3)nc(N)c2cc1OC` belongs 242 to 245 °C. For the compound `O=C(O)CCCNC(=O)c1ccc(NC(=O)c2ccccc2O)cc1`, the melting point is 211 to 213 °C.

In turn, `CCOC(=O)c1cc(NCc2ccccc2)c(Nc2cccc(C)c2)c(S(N)(=O)=O)c1` displayed a melting point of 169 to 170 °C.

`COc1cc(OCC2CCCO2)ccc1C=O` (stereo unspecified) returned a melting point of 73.3 °C.

With `CC=C1CCC2C3CC=C4CC(O[Si](CC)(CC)CC)CC(O[Si](CC)(CC)CC)C4(C)C3CCC12C` (stereo unspecified), the melting point was 81 to 82 °C. To `N#Cc1cc(Br)c2c(c1)N(C1CC1)CNS2(=O)=O` belongs 250 to 253 °C. Turning to `Cc1ccc(C=Cc2ccc(-c3ccccc3)s2)cc1`, the melting point lay in the range of 159 to 160 °C.

Turning to `CCNC(=O)C[C@@H]1N=C(c2ccc(Cl)cc2)c2cc(OC)ccc2-n2c(C)nnc21`, the melting point is above 140 °C. `O=C(NC1N=C(c2ccccc2F)c2ccccc2N(C(=O)c2ccc(Cl)cc2)C1=O)c1ccc(Cl)cc1` (racemic): the melting point fell in the range of 190 to 191 °C. The figure for `CCOC(=O)c1ccc(N)c(I)c1` is 71 to 74 °C.
